Assay results published in patent US7985731B2, “Sugar chain added GLP-1 peptide” (Otsuka Chemical Holdings Co., Ltd., priority 2007, dated 2011).
Ends that are not written are not given here. asialo oligosaccharide = not defined here

Key:
[1] = Test Example 1: stability in plasma; type: in vitro ADME; conditions: PBS 70% / plasma 30%, 37° C., sampled 10 to 1440 minutes
Procedure: 0.1 mg of the peptide prepared in Example 7 or Comparative Example 1 was placed in an Eppendorf tube, and PBS (0.08 ml, 70% of the whole amount) and plasma (0.034 ml, 30% of the whole amount) were sequentially placed therein to bring about the solution amount to 0.114 ml in total. The mixture was allowed to react at 37° C.
The time when plasma was added to the reaction vessel was defined as 0 min. 0.01 ml aliquots were taken from the reaction solution on 10, 30, 60, 180, 360, 720 and 1440 minutes for sampling.
Each sampled reaction solution was mixed with 0.02 ml of 10% trifluoroacetic acid solution prepared in advance in an Eppendorf tube and then centrifuged. A 0.025 ml aliquot of the supernatant of the solution mixture was injected into HPLC to analyze the composition of the reaction solution (reaction monitoring conditions: Shiseido CAPCELL PAK C18, UG120, 250×4.6 mm, developing solvent A: 0.1% aqueous TFA solution, B: 0.1% TFA acetonitrile: water=90:10, gradient A:B=95:5→5:95, 15 min, flow rate: 0.7 ml/min). The results are shown in FIGS. 5 (Example 7) and 6 (Comparative Example 1).

[2] = tested on: C57BL/6JJcl mice; test: Test Example 7: Oral Glucose Tolerance Test (OGTT); type: in vivo; conditions: 9 nmol/kg intraperitoneal 30 minutes before glucose 1 mg/g oral
Method in brief: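 Overnight-fasted mice received oral glucose 1 mg/g 30 minutes after treatment. Orbital blood taken before and at 30, 60, 120 minutes post-glucose. Blood glucose measured by glucometer.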

[3] = tested on: type-2 diabetes model mice (BKS.Cg-+Lepr db/+Lepr db/Jcl); test: Test Example 2: effect of lowering blood-sugar levels in db/db mice-1; type: in vivo; conditions: 9 nmol/kg intraperitoneal, 8-week-old male db/db mice, 0-180 minutes
Procedure: The peptide prepared in each of Examples 1 to 5 or Comparative Example 1 was intraperitoneally administered as the same sample at a dose of […] of body weight (sample concentration: 9 nmol/kg of body weight) to each of three 8-week-old male type-2 diabetes model mice (BKS.Cg−+Lepr^db/Lepr^db/Jcl*). Specifically, the peptide in a PBS solution (9 nmol/10 ml) was intraperitoneally administered at a dose of 10 ml/kg to the BKS.Cg−+Lepr^db/+Lepr^db/Jcl mice (8 week old, male). 0, 30, 60, 90, 120 and 180 minutes after the administration, 0.03 ml of peripheral blood from the retro-orbital venous plexus was collected. The obtained blood was diluted with PBS to 0.3 ml in total, and the solution was centrifuged to separate plasma and hemocyte components. Then, only the plasma component was transferred to an Eppendorf tube separately prepared and refrigerated. A glucose concentration in plasma was measured in accordance with Glucose CII-Test Wako using an absorptiometer. The results were obtained by statistical processing.

[4] = tested on: db/db (BKS.Cg-+Lepr db/+Lepr db/Jcl) mice; test: Test Example 8: effect of lowering blood-sugar levels in diabetes model mice; type: in vivo; conditions: 9 nmol/kg intraperitoneal, 10-week-old male mice
Method in brief: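 Male db/db mice, 10 weeks old, given oligosaccharide-chain-added GLP-1 peptide or unmodified GLP-1 intraperitoneally in PBS (9 nmol/10 ml, 10 ml/kg). Orbital blood sampled before dosing and at 30, 60, 120, 180 and 300 min; blood glucose read with a glucometer.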

19Asn GLP-1-asialo (HAEGTFTSDVSSN(asialo oligosaccharide)LEGQAAKEFIAWLVKGRG; reading uncertain) [Example 7, GLP-1 wherein position 19 is substituted by asialo oligosaccharide chain added Asn]
stability in plasma (HPLC analysis of remaining peptide) [1]: mostly remained even after 24 hours

CC[C@H](C)[C@H](NC(=O)[C@H](Cc1ccccc1)NC(=O)[C@H](CCC(=O)O)NC(=O)[C@H](CCCCN)NC(=O)[C@H](C)NC(=O)[C@H](C)NC(=O)[C@H](CCC(N)=O)NC(=O)CNC(=O)[C@H](CCC(=O)O)NC(=O)[C@H](CC(C)C)NC(=O)[C@H](Cc1ccc(O)cc1)NC(=O)[C@H](CO)NC(=O)[C@H](CO)NC(=O)[C@@H](NC(=O)[C@H](CC(=O)O)NC(=O)[C@H](CO)NC(=O)[C@@H](NC(=O)[C@H](Cc1ccccc1)NC(=O)[C@@H](NC(=O)CNC(=O)[C@H](CCC(=O)O)NC(=O)[C@H](C)NC(=O)[C@@H](N)Cc1c[nH]cn1)[C@@H](C)O)[C@@H](C)O)C(C)C)C(=O)N[C@@H](C)C(=O)N[C@@H](Cc1c[nH]c2ccccc12)C(=O)N[C@@H](CC(C)C)C(=O)N[C@H](C(=O)N[C@@H](CCCCN)C(=O)NCC(=O)N[C@@H](CCCNC(=N)N)C(=O)NCC(=O)O)C(C)C [Comparative Example 1, GLP-1]
effect of suppressing rise in blood-sugar levels in OGTT [2]: small effect of suppressing rise in blood-sugar levels
effect of lowering blood-sugar levels (glucose concentration in plasma) [3]: hardly lowered blood-sugar levels
stability in plasma (HPLC analysis of remaining peptide) [1]: mostly degraded by 180 minutes after the plasma addition
effect of lowering blood-sugar levels in db/db mice [4]: almost equal to those in PBS-administered mice
